Tests used:
[1] = test system: circulating chimpanzee T, B or NK cell populations; experiment: Absolute numbers of lymphocytes and lymphocyte subsets by flow cytometry during immunization; type: in vivo; conditions: for B cells, % Change / T cells, % Change / Total Lymphocytes, % Change / NK cells, % Change: before vs during immunization; for average drop of T cell levels: during the immunization period; for B cells, During / NK cells, During / T cells, During / Total Lymphocytes, During: mean, months 2-14 of immunization, n = 11
From the text: Flow Cytometry: Chimpanzee PB mononuclear cells were studied by standard flow cytometry methods using a flow cytometer (751; Coulter Electronics, Inc., Hialeah, Fla.). PB lymphocytes were identified by the following markers; total T cells, CD3; T cell subunits, CD4 and CD8; B cells, CD19; and NK cells, CD56 and CD16.

[2] = DSP cross-linking and SDS-PAGE analysis of peptide complexes; type: physicochemical; conditions: DSP cross-linking in the presence of Triton-X 100 1%
Method: Lanes D,E,F, and G show the effect on peptide MW when the peptide is cross-linked with 6.25 μg (D), 12.5 μg (E), 25 μg (F) and 50 μg (G) of DSP prior to SDS-PAGE. […] At present, the nature of the two bands in this peptide under reducing conditions is unknown; these two bands can be purified by cutting the bands out of preparative gels and can be analyzed by mass spectroscopy and sequenced. Lanes A and B show the results of crosslinking F-T1-SP10IIIB(A) peptide in the presence to Triton-X 100 1% and run under reducing (A) and non-reducing conditions (B).

PHA = experiment: PBMC proliferative responses to PHA in immunized chimpanzees; type: in vivo, chimpanzee; conditions: animals 1045 and 1070; throughout the immunization period
From the text: Acpm=experimental cpm—control cpm.

Which lymphocyte count ([1]; animal 1045, week 12) does the source give for CC[C@H](C)[C@H](NC(=O)[C@@H](NC(=O)[C@@H](NC(=O)[C@H](Cc1ccccc1)NC(=O)[C@H](C)NC(=O)[C@H](CCCNC(=N)N)NC(=O)CNC(=O)[C@@H]1CCCN1C(=O)CNC(=O)[C@H](CCCNC(=N)N)NC(=O)[C@H](CCC(N)=O)NC(=O)[C@@H](NC(=O)[C@H](CCCNC(=N)N)NC(=O)[C@@H](NC(=O)[C@H](CO)NC(=O)[C@H](CCCCN)NC(=O)[C@H](CCCNC(=N)N)NC(=O)[C@@H](NC(=O)[C@H](CC(N)=O)NC(=O)[C@H](CC(N)=O)NC(=O)[C@H](CC(N)=O)NC(=O)[C@@H]1CCCN1C(=O)[C@H](CCCNC(=N)N)NC(=O)[C@@H](NC(=O)[C@H](CS)NC(=O)[C@H](C)NC(=O)[C@H](Cc1ccc(O)cc1)NC(=O)[C@H](CCSC)NC(=O)[C@H](C)NC(=O)[C@H](CCCCN)NC(=O)CNC(=O)[C@@H](NC(=O)[C@H](CCC(=O)O)NC(=O)[C@H](CCC(N)=O)NC(=O)[C@H](Cc1c[nH]c2ccccc12)NC(=O)[C@H](CCSC)NC(=O)[C@H](CC(N)=O)NC(=O)[C@@H](NC(=O)[C@@H](NC(=O)[C@H](CCC(N)=O)NC(=O)[C@H](CCCCN)NC(=O)[C@H](CC(C)C)NC(=O)[C@H](Cc1ccccc1)NC(=O)CNC(=O)[C@H](CC(C)C)NC(=O)[C@H](Cc1ccccc1)NC(=O)[C@H](CC(C)C)NC(=O)[C@H](C)NC(=O)CNC(=O)[C@@H](NC(=O)CNC(=O)[C@@H](NC(=O)[C@H](C)N)C(C)C)[C@@H](C)CC)[C@@H](C)CC)[C@@H](C)CC)C(C)C)[C@@H](C)O)[C@@H](C)O)[C@@H](C)CC)[C@@H](C)CC)C(C)C)[C@@H](C)O)C(=O)O [F-T1-SP10IIIB(A)] here?
Its lymphocyte count is 650 /mm^3.

And the “B cells, % Change” value ([1]; chimpanzee 1045, § p > .005)?
The value was −40%§.

And the “T cells, % Change” value ([1]; chimpanzee 1045, † p > .001)?
The value was −59%†.

What about the “Total Lymphocytes, % Change” value ([1]; chimpanzee 1045, † p > .001) of the same compound?
The value was −55%†.

What about the “NK cells, % Change” value ([1]; chimpanzee 1045, ‡ p > .02) of the same compound?
Its value is −45%‡.

What about the “average drop of T cell levels” value ([1]; chimpanzee 1045, p>0.001 as printed) of the same compound?
Its value is 59%.

What about the “B cells, During” value ([1]; chimpanzee 1045) of the same compound?
The value was 175 Cells/mm^3.

What about the “NK cells, During” value ([1]; chimpanzee 1045) of the same compound?
Its value is 61 Cells/mm^3.

What about the “T cells, During” value ([1]; chimpanzee 1045) of the same compound?
Its value is 1012 Cells/mm^3.

What about the “Total Lymphocytes, During” value ([1]; chimpanzee 1045) of the same compound?
Its value is 1426 Cells/mm^3.

And the “B cells, % Change” value ([1]; chimpanzee 1070)?
Its value is −23%.

And the “NK cells, % Change” value ([1]; chimpanzee 1070)?
The value was −36%.

What about the “Total Lymphocytes, % Change” value ([1]; chimpanzee 1070) of the same compound?
Its value is −30%.

What about the “T cells, % Change” value ([1]; chimpanzee 1070, ‡ p > .02) of the same compound?
The value was −44%‡.

What about the “average drop of T cell levels” value ([1]; chimpanzee 1070, p>0.02 as printed) of the same compound?
Its value is 44%.

And the “B cells, During” value ([1]; chimpanzee 1070)?
The value was 232 Cells/mm^3.

What about the “NK cells, During” value ([1]; chimpanzee 1070) of the same compound?
Its value is 306 Cells/mm^3.

And the “T cells, During” value ([1]; chimpanzee 1070)?
Its value is 1887 Cells/mm^3.

And the “Total Lymphocytes, During” value ([1]; chimpanzee 1070)?
The value was 2768 Cells/mm^3.

What about the “effect on circulating lymphocyte levels” value ([1]; chimpanzees, F-derivatized peptide in 1045 and 1070, Th-B in 884 and 1028) of the same compound?
Its value is “induced decreases in absolute levels of circulating T cells”.

And the “stability of high MW complexes to detergent” value [2]?
Its value is “resistant to disruption by this detergent”.

And the “PBMC PHA responses” value (PHA)?
The value was “normal”.

Source: patent US20030022826A1, “Use of synthetic peptides to induce tolerance to pathogenic T and B cell epitopes of autoantigens or infectious agents” (priority 1987, published 2003)
